Test results taken from US10640495B2, “Heterocycle derivatives having TrkA inhibitory activity” (Shionogi & Co., Ltd., priority 2015, dated 2020).

molecular target: human TrkA (Homo sapiens (Human), UniProt P04629); assay: Human TrkA inhibition assay (Test Example 2); type: biochemical; details: Table 152, human TrkA inhibition; read-out: IC50_nM
Summary of the method: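 Mobility-shift readout of phosphorylated versus unphosphorylated fluorescent peptide gave conversion ratio, normalized to DMSO and no-enzyme wells; IC50 by logistic fit of 10- or 15-point 3-fold dilutions. Conditions: 1 nmol/L enzyme, 15 min compound preincubation, then 500 μmol/L ATP plus 1.5 μmol/L peptide, 120 min, 37 °C.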

Chain of human TrkA (P04629 440-796): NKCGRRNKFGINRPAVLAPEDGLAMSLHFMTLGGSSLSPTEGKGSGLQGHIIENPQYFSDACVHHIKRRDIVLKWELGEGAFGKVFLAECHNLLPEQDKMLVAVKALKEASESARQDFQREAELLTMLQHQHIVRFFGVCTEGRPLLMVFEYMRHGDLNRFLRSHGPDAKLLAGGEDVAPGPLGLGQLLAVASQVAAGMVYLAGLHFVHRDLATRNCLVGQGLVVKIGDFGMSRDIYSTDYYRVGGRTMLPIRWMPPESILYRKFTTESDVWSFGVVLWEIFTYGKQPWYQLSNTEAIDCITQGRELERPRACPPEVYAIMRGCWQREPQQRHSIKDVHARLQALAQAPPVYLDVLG

| SMILES | IC50 |
| --- | --- |
| COCCC1C[C@@H](NC(=O)Nc2c(C)c(-c3ccc(=O)[nH]c3)nn2-c2ccccc2)[C@H](c2ccccc2)O1 (some centres unmarked) [Compound I-18] | < 100 nM |

same assay, conditions: Table 153, human TrkA inhibition; read-out: IC50

| SMILES | IC50 |
| --- | --- |
| COCCN1C[C@@H](NC(=O)Nc2c(C)c(-c3cc(C(N)=O)c(=O)n(C)c3)nn2-c2ccccc2)[C@H](c2ccnc(F)c2)O1 (racemic) [Compound I-105] | < 100 nM |
| COCCN1C[C@@H](NC(=O)Nc2c(C)c(-c3cnn(C)c3)nn2-c2ccccc2)[C@H](c2cnc(F)c(F)c2)O1 (racemic) [Compound I-52] | < 100 nM |
| COCCN1C[C@@H](NC(=O)Nc2c(C)c(-c3cnc4c(c3)ncn4C)nn2-c2ccccc2)[C@H](c2cccc(F)c2)O1 (racemic) [Compound I-141] | < 100 nM |
| COCCC1C[C@@H](NC(=O)Nc2c(C)c(-c3cnc4c(cnn4C)c3)nn2-c2ccccc2)[C@H](c2ccccc2)O1 (some centres unmarked) [Compound I-98] | < 100 nM |
| COCCN1C[C@@H](NC(=O)Nc2c(C)c(-c3cnc(OC)c(C(=O)NC4CCS(=O)(=O)CC4)c3)nn2-c2ccccc2)[C@H](c2cnc(F)c(F)c2)O1 (racemic) [Compound I-103] | < 100 nM |
| CCN1C[C@@H](NC(=O)Nc2c(C)c(-c3cc(C(=O)NC)c(=O)n(C)c3)nn2-c2ccccc2)[C@H](c2ccc(F)c(F)c2)O1 (racemic) [Compound I-148] | < 100 nM |
| COCCN1C[C@@H](NC(=O)Nc2c(C)c(-c3cnc4c(c3)c(CO)nn4C)nn2-c2ccccc2)[C@H](c2cnc(F)c(F)c2)O1 [Compound I-128] | < 100 nM |
| CCN1CCC(NC(=O)c2cc(-c3nn(-c4ccccc4)c(NC(=O)N[C@@H]4C[C@@H](CCOC)O[C@H]4c4ccc(F)c(F)c4)c3C)ccn2)CC1 (racemic) [Compound I-64] | < 100 nM |
| COCCN1C[C@@H](NC(=O)Nc2c(C)c(-c3cnc(N(C)C)nc3)nn2-c2ccccc2)[C@H](c2ccnc(F)c2)O1 (racemic) [Compound I-132] | < 100 nM |

same assay, conditions: Table 154, human TrkA inhibition; read-out: IC50

| SMILES | IC50 |
| --- | --- |
| COCCN1C[C@@H](NC(=O)Nc2c(C)c(-c3cnc4cccnc4c3)nn2-c2ccccc2)[C@H](c2ccnc(F)c2)O1 (racemic) [Compound I-188] | < 100 nM |
| COCCN1C[C@@H](NC(=O)Nc2c(C)c(-c3cnc(OC)c(C(=O)N[C@@H]4CCOC4)c3)nn2-c2ccccc2)[C@H](c2ccnc(F)c2)O1 [Compound I-192] | < 100 nM |
| CNS(=O)(=O)c1cc(-c2nn(-c3ccccc3)c(NC(=O)N[C@@H]3CN(CCOC)O[C@H]3c3ccnc(F)c3)c2C)cn(C)c1=O (racemic) [Compound I-178] | < 100 nM |
| COCCN1C[C@@H](NC(=O)Nc2c(C)c(-c3cnc(C(=O)NC4CC4)c(F)c3)nn2-c2ccccc2)[C@H](c2ccnc(F)c2)O1 (racemic) [Compound I-257] | < 100 nM |

same assay, conditions: Table 155, human TrkA inhibition; read-out: IC50

| SMILES | IC50 |
| --- | --- |
| COCCN1C[C@@H](NC(=O)Nc2c(C)c(-c3cnc4c(c3)c(C(=O)OC)nn4C)nn2-c2ccccc2)[C@H](c2ccnc(F)c2)O1 (racemic) [Compound I-369] | < 100 nM |
| COCCN1C[C@@H](NC(=O)Nc2c(C)c(-c3ccc4nccn4c3)nn2-c2ccccc2)[C@H](c2ccnc(F)c2)O1 (racemic) [Compound I-470] | < 100 nM |
| COCCN1C[C@@H](NC(=O)Nc2c(C)c(-c3ccc(N4C[C@H]5COC[C@@H](C4)N5)nc3)nn2-c2ccccc2)[C@H](c2ccnc(F)c2)O1 (racemic) [Compound I-394] | < 100 nM |
| COCCN1C[C@@H](NC(=O)Nc2c(C)c(-c3cnc4c(cnn4CC(=O)OC)c3)nn2-c2ccccc2)[C@H](c2ccnc(F)c2)O1 (racemic) [Compound I-446] | < 100 nM |
| CNC(=O)c1cc(NC(=O)N[C@@H]2CN(CCOC)O[C@H]2c2ccnc(F)c2)n(-c2ccccc2)n1 (racemic) [Compound I-388] | > 1000 nM |
| COCCN1C[C@@H](NC(=O)Nc2c(C)c(-c3cc(F)c4c(c3)NCCO4)nn2-c2ccccc2)[C@H](c2ccnc(F)c2)O1 (racemic) [Compound I-383] | < 100 nM |
| COCCN1C[C@@H](NC(=O)Nc2c(C)c(-c3cnc4c(c3)N(C(C)=O)CCO4)nn2-c2ccccc2)[C@H](c2ccnc(F)c2)O1 (racemic) [Compound I-341] | < 100 nM |
| COCCN1C[C@@H](NC(=O)Nc2c(C)c(-c3cnc4c(c3)N3C(=O)OCC3CO4)nn2-c2ccccc2)[C@H](c2ccnc(F)c2)O1 (mixture of isomers) [Compound I-326] | < 100 nM |
| COCCN1C[C@@H](NC(=O)Nc2c(C)c(-c3cnc4c(cnn4CC(=O)N4CCN(C)CC4)c3)nn2-c2ccccc2)[C@H](c2ccnc(F)c2)O1 (racemic) [Compound I-467] | < 100 nM |
| COCCN1C[C@@H](NC(=O)Nc2c(C)c(-c3cnc(N4CC(F)C4)nc3)nn2-c2ccccc2)[C@H](c2ccnc(F)c2)O1 (racemic) [Compound I-480] | < 100 nM |
| COCCN1C[C@@H](NC(=O)Nc2c(C)c(-c3cnc(N4CC5(COC5)C4)nc3)nn2-c2ccccc2)[C@H](c2ccnc(F)c2)O1 (racemic) [Compound I-373] | < 100 nM |
| COCCN1C[C@@H](NC(=O)Nc2c(C)c(-c3cnc(C)nc3)nn2-c2ccccc2)[C@H](c2cnc(F)c(F)c2)O1 [Compound I-358] | < 100 nM |
| COCCN1C[C@@H](NC(=O)Nc2c(C)c(-c3cnc(OC4CCN(C)CC4)nc3)nn2-c2ccccc2)[C@H](c2ccc(F)c(F)c2)O1 [Compound I-464] | < 100 nM |

same assay, conditions: Table 156, human TrkA inhibition; read-out: IC50

| SMILES | IC50 |
| --- | --- |
| CCN1C[C@@H](NC(=O)Nc2c(C)c(OCC3CNCCO3)nn2-c2ccccc2)[C@H](c2ccc(F)c(F)c2)O1 (some centres unmarked) [Compound I-537] | < 100 nM |
| COCCN1C[C@@H](NC(=O)Nc2c(C)c(-c3ccc(COC(C)=O)nc3)nn2-c2ccccc2)[C@H](c2ccc(F)c(F)c2)O1 [Compound I-531] | < 100 nM |
| CCN1C[C@@H](NC(=O)Nc2c(C)c(-c3cnc4c(c3)oc(=O)n4C)nn2-c2ccccc2)[C@H](c2ccc(F)c(F)c2)O1 (racemic) [Compound I-539] | < 100 nM |
| COCCN1C[C@@H](NC(=O)Nc2c(C)c(-c3ccc(CO)nc3)nn2-c2ccccc2)[C@H](c2ccc(F)c(F)c2)O1 [Compound I-533] | < 100 nM |
| COCCN1C[C@@H](NC(=O)Nc2c(C)c(C)nn2-c2ccccc2)[C@H](c2ccnc(F)c2)O1 [Compound I-521] | < 100 nM |
| COCCN1C[C@@H](NC(=O)Nc2c(C)c(-c3ccc(C)nc3)nn2-c2ccccc2)[C@H](c2ccc(F)c(F)c2)O1 [Compound I-556] | < 100 nM |
| CCOc1nn(-c2ccccc2)c(NC(=O)N[C@@H]2CN(CCOC)O[C@H]2c2ccc(F)c(F)c2)c1C [Compound I-519] | < 100 nM |
| CCN1C[C@@H](NC(=O)Nc2c(C)c(OCC3CN(C(C)=O)CCO3)nn2-c2ccccc2)[C@H](c2ccc(F)c(F)c2)O1 (some centres unmarked) [Compound I-546] | < 100 nM |

same assay, conditions: Table 157, human TrkA inhibition; read-out: IC50

| SMILES | IC50 |
| --- | --- |
| CCN1C[C@@H](NC(=O)Nc2c(C)c(OC(C)C3CCN(C)CC3)nn2-c2ccccc2)[C@H](c2ccc(F)c(F)c2)O1 (some centres unmarked) [Compound I-679] | < 100 nM |
| COCCN1C[C@@H](NC(=O)Nc2c(C)c(OC3CN(C)C3)nn2-c2ccccc2)[C@H](c2ccc(F)c(F)c2)O1 [Compound I-600] | < 100 nM |
| CCN1C[C@@H](NC(=O)Nc2c(C)c(OCC3CNC(=O)O3)nn2-c2ccccc2)[C@H](c2ccc(F)c(F)c2)O1 (some centres unmarked) [Compound I-675] | < 100 nM |
| COc1ncc(-c2nn(-c3ccccc3)c(NC(=O)N[C@@H]3CN(CCCO)O[C@H]3c3ccc(F)c(F)c3)c2C)cn1 (racemic) [Compound I-678] | 100 to 1000 nM |
| CCN1C[C@@H](NC(=O)Nc2c(C)c(OCCCC(=O)NC3CC3)nn2-c2ccccc2)[C@H](c2ccc(F)c(F)c2)O1 (racemic) [Compound I-665] | < 100 nM |
| CCN1C[C@@H](NC(=O)Nc2c(C)c(-c3ccc4nc(C(N)=O)cn4c3)nn2-c2ccccc2)[C@H](c2ccc(F)c(F)c2)O1 (racemic) [Compound I-611] | < 100 nM |
| CCN1C[C@@H](NC(=O)Nc2c(C)c(OCC(C)(C)O)nn2-c2ccccc2)[C@H](c2ccc(F)c(F)c2)O1 (racemic) [Compound I-656] | 100 to 1000 nM |
| CCN1C[C@@H](NC(=O)Nc2c(C)c(OCCCCO)nn2-c2ccccc2)[C@H](c2ccc(F)c(F)c2)O1 (racemic) [Compound I-670] | < 100 nM |
| CCN1C[C@@H](NC(=O)Nc2c(C)c(OCCCC(=O)N(C)C)nn2-c2ccccc2)[C@H](c2ccc(F)c(F)c2)O1 (racemic) [Compound I-664] | < 100 nM |
| COCCN1C[C@@H](NC(=O)Nc2c(C)c(OC3CCN(C)CC3)nn2-c2ccccc2)[C@H](c2ccc(F)c(F)c2)O1 [Compound I-603] | < 100 nM |
| COCCN1C[C@@H](NC(=O)Nc2c(C(F)F)c(C)nn2-c2ccccc2)[C@H](c2ccnc(F)c2)O1 (racemic) [Compound I-673] | 100 to 1000 nM |

same assay, conditions: human TrkA 1 nmol/L, ATP 500 μmol/L, 120 min at 37° C.; read-out: IC50 values (TrkA phosphorylation inhibition)

| SMILES | IC50 |
| --- | --- |
| COCCN1C[C@@H](NC(=O)Nc2c(C)c(-c3ccc(-c4nn[nH]n4)nc3)nn2-c2ccccc2)[C@H](c2ccc(F)c(F)c2)O1 (racemic) [Compound I-145] | 0.87 nM |
| CNc1ncc(-c2nn(-c3ccccc3)c(NC(=O)N[C@@H]3CN(CCOC)O[C@H]3c3cnc(F)c(F)c3)c2C)cn1 [Compound I-135] | 0.52 nM |
| COCCN1C[C@@H](NC(=O)Nc2c(C)c(-c3ccc4nc(C)nn4c3)nn2-c2ccccc2)[C@H](c2ccnc(F)c2)O1 (racemic) [Compound I-159] | 2.1 nM |
| COCCN1C[C@@H](NC(=O)Nc2c(C)c(-c3cnc4c(c3)oc(=O)n4C)nn2-c2ccccc2)[C@H](c2ccnc(F)c2)O1 (racemic) [Compound I-122] | 2.7 nM |
| COCCN1C[C@@H](NC(=O)Nc2c(C)c(-c3cnc(C)nc3)nn2-c2ccccc2)[C@H](c2cc(F)nc(F)c2)O1 (racemic) [Compound I-285] | 2.7 nM |
| COCC[C@@H]1C[C@@H](NC(=O)Nc2c(C)c(-c3cnc(OC)nc3)nn2-c2ccccc2)[C@H](c2ccnc(F)c2)O1 [Compound I-273] | 4.7 nM |
| CNC(=O)c1ncc(-c2nn(-c3ccccc3)c(NC(=O)N[C@@H]3CN(CCOC)O[C@H]3c3ccc(F)c(F)c3)c2C)cc1NC [Compound I-315] | 0.76 nM |
